# Measurements: ChEMBL document CHEMBL1201862, “PubChem BioAssay data set” (2004)
#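 Results reflect a 48-hour exposure of cells in 96-well plates to compound at five concentrations. GI50 = concentration required for 50% inhibition of growth.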 Calls of active or inactive are those of the source. Cut-off read from the data, not from the text of the source: active = GI50 up to about 1.1 µM and inactive = higher.
# How the values were obtained:
# Assay in all cases: NCI-60 cell line screen, 48 h
# A498 = system: A498
# A549 = system: A549
# CAKI-1 = system: CAKI-1
# CCRF-CEM = system: CCRF-CEM
# COLO 205 = system: COLO 205
# HCC 2998 = system: HCC 2998
# HOP-92 = system: HOP-92
# NCI-H522 = system: NCI-H522
# OVCAR-4 = system: OVCAR-4
# OVCAR-5 = system: OVCAR-5
# SF-268 = system: SF-268
# SNB-19 = system: SNB-19
# SNB-75 = system: SNB-75
# UACC-257 = system: UACC-257
# HCT-116 = system: HCT-116
# SN12C = system: SN12C
Structure (SMILES),GI50 (A498),GI50 (A549),GI50 (CAKI-1),GI50 (CCRF-CEM),GI50 (COLO 205),GI50 (HCC 2998),GI50 (HOP-92),GI50 (NCI-H522),GI50 (OVCAR-4),GI50 (OVCAR-5),GI50 (SF-268),GI50 (SNB-19),GI50 (SNB-75),GI50 (UACC-257),GI50 (HCT-116),GI50 (SN12C)
CC1=C(O)C(=O)C2C(=O)C1C(C)C2c1ccc(C)cc1 (stereo not given),> 100 µM (inactive),> 100 µM (inactive),> 100 µM (inactive),> 100 µM (inactive),> 100 µM (inactive),> 100 µM (inactive),> 100 µM (inactive),> 100 µM (inactive),> 100 µM (inactive),> 100 µM (inactive),> 100 µM (inactive),> 100 µM (inactive),98.9 µM (inactive),> 100 µM (inactive),–,–
O=c1[nH]c2cc(-c3ccccc3)nc-2nn1-c1c(Cl)cc(Cl)cc1Cl,33 µM (inactive),37.6 µM (inactive),27.5 µM (inactive),28.6 µM (inactive),15.1 µM (inactive),4.03 µM (inactive),31.5 µM (inactive),28.8 µM (inactive),–,39.4 µM (inactive),> 100 µM (inactive),33.1 µM (inactive),–,29.5 µM (inactive),22.4 µM (inactive),28.6 µM (inactive)
C[C@]12CC[C@H](OC(=O)Nc3ccccc3)CC1=CC[C@@H]1C2CC[C@]2(C)/C(=N/OC(=O)Nc3ccccc3)CCC12 (stereo not given in full),> 100 µM (inactive),7.85 µM (inactive),1.81 µM (inactive),2.83 µM (inactive),4.49 µM (inactive),> 100 µM (inactive),20.1 µM (inactive),–,5.66 µM (inactive),70.5 µM (inactive),7.94 µM (inactive),76.2 µM (inactive),5.5 µM (inactive),–,4.18 µM (inactive),1.79 µM (inactive)
CCc1cccc(C(C)C)c1NC(=O)CC1Sc2ccccc2NC1=O (stereo not given),46.8 µM (inactive),49.2 µM (inactive),0.241 µM (active),47.5 µM (inactive),50.4 µM (inactive),> 100 µM (inactive),39.5 µM (inactive),33.4 µM (inactive),76.2 µM (inactive),> 100 µM (inactive),> 100 µM (inactive),23.2 µM (inactive),60.7 µM (inactive),43.8 µM (inactive),56.4 µM (inactive),> 100 µM (inactive)
COc1ccc(OC(C)=O)c2c1CCC=CC2=O,21.5 µM (inactive),19.1 µM (inactive),–,3.44 µM (inactive),9.2 µM (inactive),17.1 µM (inactive),2.83 µM (inactive),1.86 µM (inactive),20 µM (inactive),16.7 µM (inactive),> 10 µM (inactive),17.6 µM (inactive),15.8 µM (inactive),17.7 µM (inactive),18.7 µM (inactive),17.1 µM (inactive)
COC(=O)Cc1nn2c(nc1=O)sc1ccc3ccccc3c12,> 100 µM (inactive),> 100 µM (inactive),50.2 µM (inactive),> 100 µM (inactive),> 100 µM (inactive),> 100 µM (inactive),63.8 µM (inactive),37.2 µM (inactive),> 100 µM (inactive),> 100 µM (inactive),–,> 100 µM (inactive),37.3 µM (inactive),> 100 µM (inactive),> 100 µM (inactive),> 100 µM (inactive)
COC1(OC)CC2C=C(S(=O)(=O)c3ccccc3)C1N(Cc1ccccc1)C2=O (stereo not given),22.4 µM (inactive),33 µM (inactive),–,16.2 µM (inactive),19.9 µM (inactive),60.3 µM (inactive),28.3 µM (inactive),16.4 µM (inactive),29.2 µM (inactive),–,> 100 µM (inactive),39.8 µM (inactive),36.5 µM (inactive),22.6 µM (inactive),13.4 µM (inactive),23 µM (inactive)
COc1ccc(/C=c2\sc3nnc(CCC(=O)Nc4cccc(C(F)(F)F)c4)n3c2=O)cc1,> 100 µM (inactive),> 100 µM (inactive),> 79.8 µM (inactive),37.2 µM (inactive),> 100 µM (inactive),> 100 µM (inactive),> 100 µM (inactive),–,> 100 µM (inactive),> 100 µM (inactive),97.5 µM (inactive),> 100 µM (inactive),> 75.7 µM (inactive),> 100 µM (inactive),> 100 µM (inactive),> 100 µM (inactive)
Cc1ccc([Se][Se]c2ccc(C)cc2)cc1,> 100 µM (inactive),33.3 µM (inactive),47.4 µM (inactive),3.48 µM (inactive),> 100 µM (inactive),53.8 µM (inactive),6.87 µM (inactive),3.32 µM (inactive),12.5 µM (inactive),–,6.84 µM (inactive),33 µM (inactive),7.91 µM (inactive),17 µM (inactive),14.4 µM (inactive),26.7 µM (inactive)
CCOc1ccccc1NC(=O)/C=C1\NC(=O)CS1,> 100 µM (inactive),> 100 µM (inactive),> 100 µM (inactive),69 µM (inactive),> 100 µM (inactive),> 100 µM (inactive),> 100 µM (inactive),86.1 µM (inactive),> 100 µM (inactive),> 100 µM (inactive),> 100 µM (inactive),> 100 µM (inactive),26.9 µM (inactive),–,> 100 µM (inactive),> 100 µM (inactive)
COc1cc(Cl)c2c3c(c(C(C)=O)oc13)CCC2,> 100 µM (inactive),> 100 µM (inactive),> 100 µM (inactive),> 100 µM (inactive),> 100 µM (inactive),> 100 µM (inactive),92.9 µM (inactive),–,> 100 µM (inactive),–,–,> 100 µM (inactive),> 100 µM (inactive),> 100 µM (inactive),> 100 µM (inactive),> 100 µM (inactive)
O=C(Cc1nc2ccccc2o1)C(=O)Nc1cccc(C(F)(F)F)c1,> 100 µM (inactive),> 100 µM (inactive),> 100 µM (inactive),> 100 µM (inactive),> 100 µM (inactive),> 100 µM (inactive),> 100 µM (inactive),> 100 µM (inactive),> 100 µM (inactive),> 100 µM (inactive),> 100 µM (inactive),> 100 µM (inactive),> 100 µM (inactive),> 100 µM (inactive),> 100 µM (inactive),> 100 µM (inactive)
COc1cc(-c2cc(=O)c3c(O)c(OC)c(OC)c(OC)c3o2)ccc1O,2.61 µM (inactive),27.3 µM (inactive),–,22.4 µM (inactive),> 10 µM (inactive),34.6 µM (inactive),2.33 µM (inactive),17.1 µM (inactive),–,> 100 µM (inactive),26.5 µM (inactive),34 µM (inactive),–,20.7 µM (inactive),24.8 µM (inactive),26.7 µM (inactive)
COc1cc(/C=C\c2ccc(Br)cc2)cc(OC)c1OC,0.01 µM (active),0.000589 µM (active),0.01 µM (active),0.000352 µM (active),0.00486 µM (active),0.0155 µM (active),0.01 µM (active),0.000357 µM (active),0.0622 µM (active),35.4 µM (inactive),0.000792 µM (active),0.0057 µM (active),0.000422 µM (active),0.000414 µM (active),0.000515 µM (active),0.00168 µM (active)
